Converted amounts (≈) assume the structure as drawn.
Tested on: S. mutans UA159 (ATCC 700610)
Experiment: Minimal inhibition concentration (MIC) determination, S. mutans UA159
Format: cell-based
Settings: Streptococcus mutans, ATCC700610, BHI medium, 48 h, A600
Description: Minimal inhibition concentration (MIC) determination . S.mutans UA159 (ATCC 700610) and 20 clinical S.mutans strains were used. S.mutans UA159 was purchased from Shanghai Biofeng Biotechnology Co., LTD. These bacteria grown in brain heart infusion broth (BHI, Beijing Land Bridge, China) at 37 °C under anaerobic conditions.
Due to bacteria incubation under the condition of excessive acid for a long time will affect its vitality, therefore, pH 5.5 was choose as acidic condition for the MIC determination. Peptides and CHX were dissolved in BHI medium of different pHs (pH 5.5 and 7.0) using serial dilutions to obtain different diluted solutions. 2 µL of bacteria (1×10^7 CFU (colony forming units) in the logarithmic phase were added into each well of 96-well plates containing 200 µL different diluted solutions. Note that […]
the aggregate behavior of peptides. In order to avoid interfering with the MIC test, it is important to set up the control wells which only contain different concentrations of peptides in BHI medium of different pHs. The absorbance at 600 nm was detected with a microplate reader (Multiskan Spectrum, BioTek Inc., USA) after 48 h. The inhibition rate of drugs on bacteria was calculated based on the absorbance […]
The SYTO 9 / PI double staining and scanning electron microscopy (SEM) were also performed to evaluate the bacterial killing and bacterial membrane disruption. […]

Q: With `[H]/N=C(\N/C(=N/[H])NCCCCCCNC(=N)NC(=N)Nc1ccc(Cl)cc1)Nc1ccc(Cl)cc1` [CHX, chlorhexidine] as the compound, how does the MIC (pH 5.5) read?
A: 0.5 µM (≈ 0.253 µg/mL)

Q: What about the MIC (pH 7.0) of the same compound?
A: 1 µM (≈ 0.505 µg/mL)

From paper PMC9254247, “Dual-sensitive antibacterial peptide nanoparticles prevent dental caries” (Theranostics, 2022)
